Reference: patent EP4755881A1 (Wuhan Createrna Science and Technology Co., Ltd., priority 2023, dated 2025)
Like-named read-outs stand apart in the source and are kept apart here.

Tests used:
[1] = target: T1, LPAR1 receptor (Homo sapiens, UniProt Q92633); assay: LPAR1 in vitro biological activity evaluation 2: HTRF cAMP kit (LANCE Ultra cAMP Kit) assay in CHO stable transfected cell line expressing the LPAR1 receptor; assay type: cell-based; conditions: Table 2, read-out: LPAR1 inhibitory activity IC50
T1 construct: expressed in transfected cells
T1 sequence (Q92633 whole entry): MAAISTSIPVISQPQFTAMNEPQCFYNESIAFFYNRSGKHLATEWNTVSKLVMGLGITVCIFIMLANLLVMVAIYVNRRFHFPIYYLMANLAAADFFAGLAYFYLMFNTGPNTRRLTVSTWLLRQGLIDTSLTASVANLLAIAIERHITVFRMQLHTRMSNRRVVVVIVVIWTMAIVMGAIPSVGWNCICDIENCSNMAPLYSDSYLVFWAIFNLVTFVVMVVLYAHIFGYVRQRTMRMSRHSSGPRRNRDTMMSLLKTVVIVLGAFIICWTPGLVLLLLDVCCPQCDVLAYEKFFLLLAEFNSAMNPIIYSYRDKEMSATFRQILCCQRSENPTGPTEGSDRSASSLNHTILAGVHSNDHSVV
Method: The inhibitory effects of the compounds of the present disclosure on the LPAR1 receptor were determined using a Chinese hamster ovary (CHO) stable transfected cell line expressing the LPAR1 receptor, through the HTRF cAMP kit (LANCE® Ultra cAMP Kit).
The CHO cell line expressing the LPAR1 receptor was cultured in F-12 medium (Gibco, 117650054) containing 10% fetal bovine serum (FBS, Avantor, 76294-180) and 0.2 mg/mL hygromycin B (Solarbio, H8080-1g) at 37°C with 5% CO2. Cell passage, recovery, and cryopreservation were performed according to conventional methods. The stable transfected cell line was cultured to 80% confluence, digested with trypsin to collect cells, counted, and then seeded at 5 µL/well in a 384-well plate (500 cells/5 µL). The 1× Stimulation Buffer was prepared according to the instructions of the kit (LANCE® Ultra cAMP Kit). 1 µL of the test compound solution (diluted to 10× with 1× Stimulation Buffer) was added to the corresponding experimental wells, followed by centrifugation and incubation at 37°C for 10 minutes. […] 5 µL/well of Eu-cAMP (diluted with Detection buffer) was added to the corresponding experimental wells. 5 µL/well of ULight™-anti-cAMP antibody (diluted with Detection buffer) was added to the corresponding experimental wells, followed by centrifugation and incubation at room temperature for 1 hour. After the incubation was completed, the readings at 665 nm and 620 nm under 330 nm excitation were detected using the HTS high-throughput drug screening multifunctional microplate reader (BMG, PHERAstar FSX). The IC50 values were calculated by fitting nonlinear regression (dose response - variable slope) using GraphPad Prism software.

[2] = Pharmacokinetic study in rats (oral gavage and tail vein injection, plasma LC-MS/MS); assay type: in vivo; conditions: rat; for Cmax: read-out: Cmax
Method: Male SPF-grade SD rats (Beijing Vital River Laboratory Animal Technology Co., Ltd.) with a body weight range of 200 to 250 g were used. After acclimatization, the rats were administered a clear solution of the compound of the present disclosure via oral gavage (Po, fasted overnight before administration with free access to water, food returned 4 hours after administration) and tail vein injection (Iv, free access to food and water throughout the administration). Blood samples were collected from the orbital venous plexus/jugular vein of rats at specified time points after administration (blood collection time points for the PO group: 0.167, 0.5, 1, 2, 4, 6, 8, and 24 h; for the IV group: 0.033, 0.167, 1, 2, 4, 6, 8, and 24 h). The concentration of compounds in plasma was detected by LC-MS/MS (AB SCIEX Qtrap4500). Data were analyzed using WinNonlin (version 5.2.1 Pharsight, Mountain View, CA) with a non-compartmental model to obtain PK parameters (including Cmax, C0, Tmax, AUClast, AUCinf, T1/2, etc.).
Table 3: Results of in vivo pharmacokinetic studies of compounds of the present disclosure in rats
The vehicle for the Po group compound was 5% DMSO + 5% ethanol + 60% PEG400 + 30% normal saline; the vehicle for the Iv group compound was 10% ethanol + 20% pure water + 70% PEG400 solution.

[3] = target: hLPAR1 (human lysophosphatidic acid receptor 1, Accession No.: NM_001401.4) (Homo sapiens, UniProt Q92633); assay: cell-based; conditions: FLIPR method, CHO-K1 cells overexpressing hLPAR1
hLPAR1 (human lysophosphatidic acid receptor 1, Accession No.: NM_001401.4), sequence (Q92633 whole entry): as above
Summary of the method: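 Antagonist mode in CHO-K1 cells stably expressing hLPAR1, Fluo-4 loaded; compound preincubated 30 min at room temperature before 1 µM oleoyl-LPA (final) challenge.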

[4] = Table 1, read-out: LPAR1 inhibitory activity IC50
[5] = LPAR1 inhibitory activity IC50, Table 1

Row | Compound | half-life ([2]; male, SD, iv, 1 mg/kg) [h] | half-life ([2]; male, SD, po, 1 mg/kg) [h] | AUC(0-t) ([2]; male, SD rats, Iv, 1 mg/kg) [ng·h/mL] | Cmax ([2]; male, SD rats, Iv, 1 mg/kg) [ng/mL] | AUC(0-t) ([2]; male, SD rats, Po, 1 mg/kg) [ng·h/mL] | Cmax ([2]; male, SD rats, Po, 1 mg/kg) [ng/mL] | IC50 [3, 4] [nM] | AUC(0-t) ([2]; SD rats, Iv, 1 mg/kg) [ng·h/mL] | half-life ([2]; SD rats, Iv, 1 mg/kg) [h] | Cmax ([2]; SD rats, Iv, 1 mg/kg) [ng/mL] | IC50 [3, 5] [nM] | other results
1 | CCC[C@@H](C)OC(=O)Nc1c(-c2ccc(C#CC3(CC(=O)O)CC(OC)C3)c(C)n2)nnn1C (single isomer, unassigned) [278-A] |  |  |  |  |  |  |  |  |  |  |  | IC50 [1]: 46.2 nM
2 | CCC[C@@H](C)OC(=O)Nc1c(-c2ccc(C#CC3(CC(=O)O)CC(OC)C3)c(C)n2)nnn1C (single isomer, unassigned) [278-B] |  |  |  |  |  |  |  |  |  |  |  | IC50 [1]: 56 nM
3 | CC(OC(=O)Nc1c(-c2ccc(C#CC3(CC(=O)O)CC3)c(F)n2)nnn1C)C12CC(C1)C2 (stereo not shown) [237-A, 2-(1-((6-(5-(((1-(bicyclo[1.1.1]pentan-1-yl)ethoxy)carbonyl)amino)-1-methyl-1H-1,2,3-triazol-4-yl)-2-fluoropyridin-3-yl)ethynyl)cyclopropyl)acetic acid] | 5.19 | 4 | 5000 to 10000 | 5000 to 8000 | 5000 to 10000 | 800 to 5000 | 34.4 |  |  |  |  | 
4 | C[C@H](C1CC1)N(C)C(=O)OCc1c(-c2ccc(C#CC3(CC(=O)O)CC3)cn2)nnn1C [compound 002, (R)-2-(1-((6-(5-((((1-cyclopropylethyl)(methyl)carbamoyl)oxy)methyl)-1-methyl-1H-1,2,3-triazol-4-yl)pyridin-3-yl)ethynyl)cyclopropyl)acetic acid] | 7.18 |  | 1200 to 3000 | 5000 to 8000 |  |  | 83.4 |  |  |  |  | half-life ([2]; male, SD, po, 3 mg/kg): 3.4 h; AUC(0-t) ([2]; male, SD rats, Po, 3 mg/kg): 3000 to 5000 ng·h/mL; Cmax ([2]; male, SD rats, Po, 3 mg/kg): 800 to 5000 ng/mL
5 | Cc1nc(-c2nnn(C)c2NC(=O)O[C@H](C)c2ccccc2Cl)ccc1C#C[C@H]1CC[C@@H]1C(=O)O [compound 033] |  |  |  |  |  |  |  | 3000 to 5000 | 5.93 | 800 to 5000 | 3.3 | AUC(0-t) ([2]; SD rats, Po, 1 mg/kg): 3000 to 5000 ng·h/mL; half-life ([2]; SD rats, Po, 1 mg/kg): 5.31 h; Cmax ([2]; SD rats, Po, 1 mg/kg): 800 to 5000 ng/mL
6 | CCCCN(C)C(=O)OCc1c(-c2ccc(C#CC3(CC(=O)O)CC3)c(F)n2)nnn1C [compound 105] |  |  |  |  |  |  |  | 1200 to 3000 | 4.72 | 800 to 5000 | 56.2 | AUC(0-t) ([2]; SD rats, Po, 1 mg/kg): 1200 to 3000 ng·h/mL; half-life ([2]; SD rats, Po, 1 mg/kg): 6.6 h; Cmax ([2]; SD rats, Po, 1 mg/kg): 200 to 800 ng/mL
7 | Cc1nc(-c2nnn(C)c2Nc2cncc(OC(C)C)n2)ccc1C#CC1(CC(=O)O)CC1 [compound 125, 2-(1-((6-(5-((6-isopropoxypyrazin-2-yl)amino)-1-methyl-1/7-1,2,3-triazol-4-yl)-2-methylpyridin-3-yl)ethynyl)cyclopropyl)acetic acid] |  |  |  |  |  |  |  | 1200 to 3000 | 4.65 | 800 to 5000 | 43.6 | 
8 | C[C@H](CC(C)(F)F)OC(=O)Nc1c(-c2ccc(C#CC3(CC(=O)O)CC3)c(Cl)n2)nnn1C [compound 210, (R)-2-(1-((2-chloro-6-(5-((((4,4-difluoropentan-2-yl)oxy)carbonyl)amino)-1-methyl-1H-1,2,3-triazol-4-yl)pyridin-3-yl)ethynyl)cyclopropyl)acetic acid] | 6.18 | 6.08 | 5000 to 10000 | 800 to 5000 | 3000 to 5000 | 200 to 800 | 24.9 |  |  |  |  | 
9 | Cc1nc(-c2nnn(C)c2CNc2nccc(C3CCC3)n2)ccc1C#CC1(CC(=O)O)CC1 [compound 214, 2-(1-((6-(5-(((4-cyclobutylpyrimidin-2-yl)amino)methyl)-1-methyl-1H-1,2,3-triazol-4-yl)-2-methylpyridin-3-yl)ethynyl)cyclopropyl)acetic acid] | 7.01 |  | 3000 to 5000 | 800 to 5000 |  |  | 9.4 |  |  |  |  | half-life ([2]; male, SD, po, 3 mg/kg): 8.21 h; AUC(0-t) ([2]; male, SD rats, Po, 3 mg/kg): 10000 to 20000 ng·h/mL; Cmax ([2]; male, SD rats, Po, 3 mg/kg): 800 to 5000 ng/mL
10 | Cc1nc(-c2nnn(C)c2CNC(=O)OCc2ccccc2)ccc1C#CC1(CC(=O)O)CC1 [compound 215] |  |  |  |  |  |  |  | 1200 to 3000 | 5.03 | 800 to 5000 | 43 | AUC(0-t) ([2]; SD rats, Po, 3 mg/kg): 5000 to 10000 ng·h/mL; half-life ([2]; SD rats, Po, 3 mg/kg): 4.49 h; Cmax ([2]; SD rats, Po, 3 mg/kg): 800 to 5000 ng/mL
11 | Cc1nc(-c2nnn(C)c2COc2nccc(C3CC(F)(F)C3)n2)ccc1C#CC1(CC(=O)O)CC1 [compound 216, 2-(1-((6-(5-(((4-(3,3-difluorocyclobutyl)pyrimidin-2-yl)oxy)methyl)-1-methyl-1H-1,2,3-triazol-4-yl)-2-methylpyridin-3-yl)ethynyl)cyclopropyl)acetic acid] | 4.9 |  | 1200 to 3000 | 5000 to 8000 |  |  | 23.3 |  |  |  |  | half-life ([2]; male, SD, po, 3 mg/kg): 4.44 h; AUC(0-t) ([2]; male, SD rats, Po, 3 mg/kg): 5000 to 10000 ng·h/mL; Cmax ([2]; male, SD rats, Po, 3 mg/kg): 800 to 5000 ng/mL
12 | Cc1nc(-c2nnn(C)c2CNC(=O)OCCC(C)C)ccc1C#CC1(CC(=O)O)CC1 [compound 253] | 4.06 |  | 1200 to 3000 | 5000 to 8000 |  |  | 72.3 |  |  |  |  | half-life ([2]; male, SD, po, 3 mg/kg): 3.45 h; AUC(0-t) ([2]; male, SD rats, Po, 3 mg/kg): 5000 to 10000 ng·h/mL; Cmax ([2]; male, SD rats, Po, 3 mg/kg): 800 to 5000 ng/mL
13 | Cc1nc(-c2nnn(C)c2CNc2nccc(C3CC(F)(F)C3)n2)ccc1C#CC1(CC(=O)O)CC1 [compound 254] | 7.04 | 5.13 | 3000 to 5000 | 5000 to 8000 | 3000 to 5000 | 200 to 800 | 63.9 |  |  |  |  | 
14 | Cc1nc(-c2nnn(C)c2NC(=O)O[C@H](C)CC(C)(C)F)ccc1C#CC1(CC(=O)O)CC1 [compound 263] |  |  |  |  |  |  |  | 3000 to 5000 | 13.8 | 800 to 5000 | 52.8 | AUC(0-t) ([2]; SD rats, Po, 1 mg/kg): 5000 to 10000 ng·h/mL; half-life ([2]; SD rats, Po, 1 mg/kg): 10.2 h; Cmax ([2]; SD rats, Po, 1 mg/kg): 200 to 800 ng/mL
15 | Cc1nc(-c2nnn(C)c2NC(=O)O[C@H](C)C(F)(F)C(C)C)ccc1C#CC1(CC(=O)O)CC1 [compound 265] |  | 8.5 |  |  | 3000 to 5000 | 200 to 800 | 21.5 |  |  |  |  | half-life ([2]; male, SD, iv, 0.63 mg/kg): 7.81 h; AUC(0-t) ([2]; male, SD rats, Iv, 0.63 mg/kg): 1200 to 3000 ng·h/mL; Cmax ([2]; male, SD rats, Iv, 0.63 mg/kg): 800 to 5000 ng/mL
16 | Cc1nc(-c2nnn(C)c2NC(=O)O[C@H](C)CC(C)(F)F)ccc1C#CC1(CC(=O)O)CCC1 [compound 324] | 12.1 | 5.73 | 3000 to 5000 | 800 to 5000 | 5000 to 10000 | 800 to 5000 | 50.3 |  |  |  |  | 
